Experiments:
Test in all cases: relative viability (nuclei count vs DMSO), 5 days (fraction); higher = more cells survive
DM3189 + Foretinib = compound: C1CN(CCN1)C2=CC=C(C=C2)C3=CN4C(=C(C=N4)C5=CC=NC6=CC=CC=C56)N=C3 [DM3189] + COc1cc2c(Oc3ccc(NC(=O)C4(C(=O)Nc5ccc(F)cc5)CC4)cc3F)ccnc2cc1OCCCN1CCOCC1 [Foretinib] (partner 0.25 µM)
In short: (§1)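 Lung cancer cell lines in 1536-well plates got either a single drug or a fixed anchor-drug dose together with five library-drug doses (not always all listed) in √10 steps, by pin tool, on the day after seeding. Nuclei were counted after 5 days, and relative viability is the treated-to-vehicle ratio of nuclei counts. Values are medians of duplicate plates.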

DM3189 + Luminespib = compound: C1CN(CCN1)C2=CC=C(C=C2)C3=CN4C(=C(C=N4)C5=CC=NC6=CC=CC=C56)N=C3 [DM3189] + CCNC(=O)c1noc(-c2cc(C(C)C)c(O)cc2O)c1-c1ccc(CN2CCOCC2)cc1 [Luminespib] (partner 0.01 µM)
In short: as §1

DM3189 + Alpelisib = compound: C1CN(CCN1)C2=CC=C(C=C2)C3=CN4C(=C(C=N4)C5=CC=NC6=CC=CC=C56)N=C3 [DM3189] + Cc1nc(NC(=O)N2CCC[C@H]2C(N)=O)sc1-c1ccnc(C(C)(C)C(F)(F)F)c1 [Alpelisib] (partner 2 µM)
In short: as §1

DM3189 + Decitabine = compound: C1CN(CCN1)C2=CC=C(C=C2)C3=CN4C(=C(C=N4)C5=CC=NC6=CC=CC=C56)N=C3 [DM3189] + Nc1ncn([C@H]2C[C@H](O)[C@@H](CO)O2)c(=O)n1 [Decitabine] (partner 2 µM)
In short: as §1

DM3189 + OSI-027 = compound: C1CN(CCN1)C2=CC=C(C=C2)C3=CN4C(=C(C=N4)C5=CC=NC6=CC=CC=C56)N=C3 [DM3189] + COc1cccc2cc(-c3nc([C@H]4CC[C@H](C(=O)O)CC4)n4ncnc(N)c34)[nH]c12 [OSI-027] (partner 0.5 µM)
In short: as §1

Cell Line	relative viability (DM3189 + Foretinib; first compound 0.08 µM)	relative viability (DM3189 + Foretinib; first compound 0.253 µM)	relative viability (DM3189 + Foretinib; first compound 0.8 µM)	relative viability (DM3189 + Foretinib; first compound 2.53 µM)	relative viability (DM3189 + Luminespib; first compound 0.08 µM)	relative viability (DM3189 + Luminespib; first compound 0.253 µM)	relative viability (DM3189 + Luminespib; first compound 0.8 µM)	relative viability (DM3189 + Luminespib; first compound 2.53 µM)	relative viability (DM3189 + Alpelisib; first compound 0.08 µM)	relative viability (DM3189 + Alpelisib; first compound 0.253 µM)	relative viability (DM3189 + Alpelisib; first compound 0.8 µM)	relative viability (DM3189 + Alpelisib; first compound 2.53 µM)	relative viability (DM3189 + Decitabine; first compound 0.08 µM)	relative viability (DM3189 + Decitabine; first compound 0.253 µM)	relative viability (DM3189 + Decitabine; first compound 0.8 µM)	relative viability (DM3189 + Decitabine; first compound 2.53 µM)	relative viability (DM3189 + OSI-027; first compound 0.08 µM)	relative viability (DM3189 + OSI-027; first compound 0.253 µM)	relative viability (DM3189 + OSI-027; first compound 0.8 µM)	relative viability (DM3189 + OSI-027; first compound 2.53 µM)
HCC-15	1.16	0.962	1	0.927	0.355	0.399	0.391	0.369	0.951	0.798	0.802	0.894	0.648	0.674	0.571	0.534	0.757	0.599	0.524	0.673
NCI-H2087	1.28	1.18	1.07	0.969	0.187	0.145	0.139	0.176	1.31	1.07	1.01	1.03	0.269	0.249	0.284	0.275	0.718	0.462	0.449	0.601
BEN	0.79	0.582	0.533	0.734	0.387	0.555	0.516	0.382	0.917	1	1.03	0.934	0.7	0.707	0.714	0.752	0.389	0.323	0.315	0.309
NCI-H661	1.14	0.954	1.02	1.19	1.07	0.922	0.959	0.78	0.817	0.802	0.674	0.814	0.673	0.519	0.576	0.673	0.772	0.669	0.709	0.584

Source: the supplement of paper PMC10307832
